# Where “and” joins values, the source holds several entries; their conditions need not be identical. Equal values may be shown once.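 Cells were grown in 96-well plates and exposed to each compound for 48 hours at five concentrations; endpoints were interpolated linearly between bracketing concentrations, or set to the highest concentration if not reached. Here, GI50 denotes the concentration required for 50% inhibition of growth. The concentration for full growth arrest is given as TGI.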 Where a SMILES comes first, the peptide text is derived from it. Side-chain parts run from the residue outwards. The star is where a group is joined. Cbz = O=C(OCc1ccccc1)*; Boc = CC(C)(C)OC(=O)*
# How the values were obtained:
# Assay in all cases: inhibition of tumour cell growth, NCI panel, 48 h
# MDA-MB-231 breast = tested on: MDA-MB-231 breast
# OVCAR-3 ovarian = tested on: OVCAR-3 ovarian
# HOP-92 NSCLC = tested on: HOP-92 NSCLC
# EKVX NSCLC = tested on: EKVX NSCLC
# COLO 205 colon = tested on: COLO 205 colon
# MDA-MB-435 = tested on: MDA-MB-435
# MCF7 breast = tested on: MCF7 breast
# ACHN renal = tested on: ACHN renal
# CAKI-1 renal = tested on: CAKI-1 renal
# NCI-H522 lung = tested on: NCI-H522 lung
Structure (SMILES),TGI (MDA-MB-231 breast) [µM],TGI (OVCAR-3 ovarian),TGI (HOP-92 NSCLC),TGI (EKVX NSCLC),TGI (COLO 205 colon),TGI (MDA-MB-435) [µM],TGI (MCF7 breast) [µM],TGI (ACHN renal) [µM],TGI (CAKI-1 renal) [µM],GI50 (OVCAR-3 ovarian) [µM],TGI (NCI-H522 lung),GI50 (HOP-92 NSCLC),GI50 (COLO 205 colon)
Cc1ccc(N2C(=O)C(O)=C(C(=O)C(C)(C)C)C2c2ccc([N+](=O)[O-])cc2)cc1 (stereo unspecified),45.7,93.5 µM,59.5 µM,67.1 µM,32.3 µM,44.7,37.6,45.9,16.5,–,–,–,–
O=c1cc(-c2ccc[nH]2)[nH]c2cc3c(cc12)OCO3,–,> 100 µM,–,> 100 µM,60.3 µM,–,–,> 100,–,30.8,–,–,–
FC(F)(F)c1nc2cc(SSc3cc4nc(C(F)(F)F)[nH]c4cc3Cl)c(Cl)cc2[nH]1,> 100,> 100 µM,–,> 100 µM,> 100 µM,> 100,> 100,> 100,> 100,–,> 100 µM,–,–
C/C=C/COc1cc(NC(=S)c2ccoc2C)ccc1OC,> 100,> 100 µM,> 100 µM,> 100 µM,> 100 µM,> 100,> 100,–,> 100,–,> 100 µM,–,–
CCOC(=O)CCc1c(C)c2c(O)cc(O)cc2oc1=O,–,> 100 µM,> 100 µM,> 100 µM,> 100 µM,–,> 100,–,> 100,–,> 100 µM,–,–
O=C(O)C1Cc2ccccc2OC1=O (stereo unspecified),> 100,> 100 µM,–,> 100 µM,> 100 µM,> 100,> 100,> 100,> 100,–,> 100 µM,–,–
CN(c1ccccc1Cl)S(=O)(=O)c1ccccc1,> 100,> 100 µM,–,> 100 µM,> 100 µM,> 100,> 100,> 100,> 100,–,> 100 µM,–,–
CCCCCCCCCCCCCCCCCCNC(=S)/N=C/c1c(O)cc(C)oc1=O,> 100,> 100 µM,> 100 µM,57.9 µM,> 100 µM,55.6,> 100,65.4,64.1,–,–,–,–
CC(C(O)c1ccccc1)[N+](=O)[O-] (stereo unspecified),59.2,17.3 µM,–,> 100 µM,80 µM,38.2,40.1,33.7,30.6,–,22.9 µM,–,–
CC(C)CC(NC(=O)OCc1ccccc1)C(=O)NCCCCC(NC(=O)C(CCCCNC(=O)C(CC(C)C)NC(=O)OCc1ccccc1)NC(=O)C(CCCCNC(=O)C(CC(C)C)NC(=O)OCc1ccccc1)NC(=O)C(CCCCNC(=O)C(CC(C)C)NC(=O)OCc1ccccc1)NC(=O)OC(C)(C)C)C(=O)O (stereo unspecified) (Boc-K([Leu-Cbz])K([Leu-Cbz])K([Leu-Cbz])K([Leu-Cbz])-OH; configuration not given here),> 25,> 25 µM,–,–,–,> 25,> 25,> 25,> 25,–,> 25 µM,–,–
CN1CCN(c2ccc3nc(-c4ccc5nc(-c6ccc(N(C)CCCl)cc6)[nH]c5c4)[nH]c3c2)CC1,22.3,–,0.989 µM,–,0.341 µM,0.281,0.56,5.97,17.1,–,0.0365 µM,–,–
COc1ccc(-c2c(C(C)=O)c(-c3ccccc3)n(C3OC(COC(C)=O)C(OC(C)=O)C(OC(C)=O)C3OC(C)=O)c(=S)c2C#N)cc1O (stereo unspecified),–,41 µM and > 100 µM,82.5 µM and > 100 µM,79.3 µM and > 100 µM,57.5 µM and > 100 µM,> 100,> 100,> 100,> 100,–,35.9 µM and 47.7 µM,43.9 µM and 17.3 µM,21 µM and 47.7 µM
Cc1ccc(-c2nc3n(c2/C=N\N=C(N)N)CCS3)cc1,29.9,–,34 µM,30.9 µM,27.7 µM,28.9,–,28.2,34,–,18.1 µM,–,–
C/C(=N\Nc1ncnc2ccccc12)c1ccccn1,–,12.8 µM,7.75 µM,> 52.6 µM,17.9 µM,33,25.1,8.46,1.67,–,1.53 µM,–,–
CCOC(=O)CC(=Nc1cc(C)on1)N(CC)CC,–,> 100 µM,> 100 µM,> 100 µM,> 100 µM,–,–,> 100,> 100,–,> 100 µM,–,–
Cc1ccc(C(=O)NC(C)C)cc1N=NN(C)C,–,> 100 µM,> 100 µM,> 100 µM,–,–,–,> 100,> 100,–,> 100 µM,–,–
O=C(Nc1cc([N+](=O)[O-])cc([N+](=O)[O-])c1)OC1C2CCC1C1OC1C2 (stereo unspecified),–,> 50 µM,> 50 µM,> 50 µM,> 50 µM,–,–,> 50,–,–,> 50 µM,–,–
CC1(C)N=C(/C(C#N)=[N+](/[O-])C(=O)c2ccccc2)C(C)(C)N1O,> 100,> 100 µM,> 100 µM,> 100 µM,> 100 µM,> 100,> 100,> 100,> 100,–,–,–,–
COc1ccc2c(c1)Cc1c-2[nH]c2cc3c(cc2c1=O)OCO3,–,45.9 µM,48.5 µM,> 100 µM,25.5 µM,–,–,30.5,> 100,–,35.1 µM,–,–
CC(C)(CO)NC(=O)c1cccc(C(=O)NC(C)(C)CO)c1Br,> 100,–,> 100 µM,> 100 µM,> 100 µM,> 100,> 100,> 100,> 100,–,–,–,–
Cc1noc(C)c1N=Nc1ccc2nonc2c1N,> 100,> 100 µM,> 100 µM,9.77 µM,> 100 µM,> 100,> 100,> 100,> 100,–,–,–,–
CCN(CC)CCNC(=O)c1cc2cc(NC(=O)c3cc4cc(NC(=O)c5cc6cc([N+](=O)[O-])ccc6[nH]5)ccc4[nH]3)ccc2[nH]1,> 100,> 100 µM,> 100 µM,> 100 µM,> 100 µM,> 100,–,> 100,> 100,–,> 100 µM,–,–
C[n+]1c(-c2ccc(/C=N/Nc3n[nH]c(=S)n3N/N=C/c3ccc(-c4cn5ccccc5[n+]4C)cc3)cc2)cn2ccccc21,> 100,–,–,> 100 µM,> 100 µM,> 100,> 100,> 100,–,–,> 100 µM,–,–

# — PubChem BioAssay (NCI)
